Patent publication US10350204B2, “Methods for treating cognitive deficits associated with fragile X syndrome” (Wisconsin Alumni Research Foundation, priority 2015, dated 2019)

How the values were obtained:
[1] = system: Fmr1 KO and wildtype NPCs; experiment: Western blot analyses of p-AKT, p-MDM2, MDM2 and P53 in NPCs; assay type: cell-based, mouse
Procedure: NPCs were isolated from the dentate gyms of 8 to 10-week-old male Fmr1 KO mice and wild-type (wildtype) littermate controls based on our published methods (12, 64). Independently isolated cells serve as biological replicates. Proliferation and differentiation of NPCs was analyzed as described (11, 12, 61). We used only early passage cells (between passage 4 and 10) and only the same passage numbers of wildtype and Fmr1 KO cells. For each experiment, triplicate wells of cells were analyzed, and results were averaged as one data point (n=1). At least 3 independent biological replicates were used (n=3) for statistical analyses.
Protein samples were separated on SDS-PAGE gels (Bio-Rad), transferred to PVDF membranes (Millipore), and incubated with primary antibodies. After incubation with fluorescence-labeled secondary antibodies (Li—CoR), the membranes were imaged using Li—CoR and quantification was performed using ImageJ software. At least n=3 independent blots were used for statistical analysis.
For loading controls, membranes were probed with the mouse antibody against GAPDH.

[2] = system: Fmr1 KO and wildtype NPCs; experiment: BrdU proliferation assay of cultured NPCs; assay type: cell-based, mouse
Procedure: We used only early passage cells (between passage 4 and 10) and only the same passage numbers of wild type (WT) and Fmr1 KO cells. For each experiment, triplicate wells of cells were analyzed, and results were averaged as one data point (n=1). At least 3 independent experiments (n=3) were performed and used for statistical analyses for each analysis. To study cell proliferation, we dissociated neural stem cells with trypsin and plated them on poly-L-ornithine and laminin-coated 24 well plate (Scientific fisher, 87721) at a density of 100,000 cells per well in proliferation medium. At 20 h post-plating, 5 μM 5-bromo-2.′-deoxyuridine (BrdU, Sigma-Aldrich) was added into the culture medium for 6 h. NPCs were then washed with PBS and fixed with 4% paraformaldehyde for 30 min at room temperature, followed by immunohistochemical analysis. To detect BrdU incorporation, fixed cells were pretreated with 1M HCl for 30 min at 37° C., and then washed with borate buffer, pH 8.5, for 30 min. We then followed our standard immunohistochemistry protocol^10. BrdU incorporation assay was determined using an Operetta high content imaging system (PerkinElmer, Inc) and Harmony quantification software (PerkinElmer, Inc). The percentage of proliferating cells was defined as the number of BrdU-labeled cells divided by total DAPI-positive cells.
For proliferation assay in vitro, 1 μM MK2206 (Selleckchem, S1078) (AKT phosphorylation inhibitor), or 2 μM Nutlin-3 (Nt3, Selleckchem, 51061) (Mdm2 inhibitor), or 1 μM RG7112 (Selleckchem, S7030) (Mdm2 inhibitor) or YH239-EE (Selleckchem 57489) (4 μM) (Mdm2 inhibitor) was added to proliferating NPCs at 6 hours post-plating. Cells were then pulse labeled 18 hours later with 5 μM 5-bromo-2′-deoxyuridine (BrdU, Sigma-Aldrich, B5002) and incubated for 6 hours in the presence of inhibitor, followed by fixation, staining, and quantification.

[3] = system: NSCs of Fmr1 KO and wildtype mice; experiment: In vivo cell fate analysis of BrdU+ cells (NeuN, S100β); set-up: species or system mouse; conditions: 10 mg/kg, 5 injections, analyzed 4 weeks after last treatment
Procedure: (§1) All animal procedures were performed according to protocols approved by the University of Wisconsin-Madison Care and Use Committee. All mice were on C57B/L6 genetic background. The Fmr1 KO/Nestin-GFP mice (Fmr1−/y::Nestin-GFP) were created by crossing female Fmr1 heterozygous KO mice (Fmr1+/−) (59) with homozygous Nestin-GFP transgenic males (60). Generation of FMRP inducible conditional mutant mice (Fmr1loxP/y::Nestin-CreERT2::Rosa26-tdt) and tamoxifen injections to induce recombination were performed as described (12). To induce recombination, mice (6-weeks old) received Tamoxifen (Sigma-Aldrich) daily for 5 d (160 mg/kg) as described (12). Nutlin-3 (10 mg/kg) was given to 7-8 week-old mice or 20-week old mice through IP injections every other day for 5 injections and sacrificed at either 24 hours, 4 weeks, 12, or 20 weeks after the last injection. For NSC differentiation analysis, mice also received four BrdU injections (100 mg/kg) between day 2 and 3 of Nutlin-3 injections. To induce recombination in FMRP inducible conditional mutant mice (Fmr1^loxP/y::Nestin-CreER^T2::Rosa26-tdt) mice, mice 6-weeks old male mice received Tamoxifen (Sigma-Aldrich) daily for 5 days (160 mg kg-1 i.p., 30 mg ml^−1 in 10% ethanol mixed with sunflower oil, SigmaAldrich) based on a published procedure (13). BrdU (Sigma-Aldrich, B5002) was made in a concentration of 20 mg/mL in PBS. Nutlin-3 (Nt3, Cayman Chemical, 10004372) was made in a concentration of 100 mg/mL in dimethyl sulfoxide (DMSO).
Brain tissue processing and histological analysis of mouse brains were performed as described in our publications (11, 12, 61). Briefly mice were euthanized by IP injection of sodium pentobarbital and then transcardially perfused with saline followed by 4% PFA. Brains were dissected out, post-fixed overnight in 4% PFA, and equilibrated in 30% sucrose. 40 μm brain sections were generated using a sliding microtome and stored as floating sections in cryoprotectant solution (glycerol, ethylene glycol, and 0.1M phosphate buffer, pH 7.4, 1:1:2 by volume). We performed immunohistological analysis on 1-in-6 serial floating brain sections (240 μm apart). […]
Phenotypic analysis of tdT+ cells was performed as described 3,4. Briefly, at least 50 tdT+ cells in the DG were randomly selected, and their colocalization with cell-lineage markers (e.g., double labeling with GFAP) was determined using Nikon A1 confocal microscope and quantified using Image J software (NIH). […] Briefly, at least 50 BrdU+ cells in the DG were randomly selected, and the colocalization of BrdU with cell-lineage markers (NeuN or S100β) was determined using Nikon A1 confocal microscope and quantified using Image J software (NIH). […]

Fmr1 KO mice = experiment: Novel object recognition (NOR) test; assay type: in vivo, mouse
Procedure: as §1
This test is based on the natural propensity of rodents to preferentially explore novel objects over familiar ones. The experimental procedure was performed as previously described (38). On the first day, mice were habituated for 10 min to the maze in which the task was performed. On the second day, mice were put back in the maze for 10 min, and two identical objects were presented. 24 hours later, one of the familiar objects was replaced with a novel object, and the mice were again placed in the maze and were allowed to explore for 10 min, and the total time spent exploring each of the two objects (novel and familiar) was measured. The discrimination index was calculated as the difference between the percentages of time spent investigating the novel object and the time spent investigating the familiar objects: discrimination index=(novel object exploration time/total exploration time×100)−(familiar object exploration time/total exploration time×100). All experiments were videotaped and scored by scientists who were blinded to experimental conditions.

[4] = Overall health and body weight of treated mice; assay type: in vivo, mouse; conditions: wildtype and Fmr1 KO mice; Nutlin-3 10 mg/kg, 5 injections
Procedure: as §1, with “Nutlin-3 (Nt3, Cayman Chemical, 10004372) was made in a concentration of 100 mg/mL in dimethyl sulfoxide (DMSO).” left out

## COc1ccc(C2=N[C@@H](c3ccc(Cl)cc3)[C@@H](c3ccc(Cl)cc3)N2C(=O)N2CCNC(=O)C2)c(OC(C)C)c1 [Nutlin-3]
[1]; Fmr1 KO NPCs
  P53 expression: increased P53
  p-MDM2 (Ser166): did not affect p-MDM2 levels
[1]; wildtype NPCs
  P53 expression: no significant effect on wildtype cells
  p-MDM2 (Ser166): did not affect p-MDM2 levels
[2]; Fmr1 KO NPCs, 1 μM MK2206, 2 μM Nutlin-3, 1 μM RG7112, 4 μM YH239-EE
  cell proliferation (BrdU+ cells): reduced the proliferation
[2]; wildtype NPCs, 1 μM MK2206, 2 μM Nutlin-3
  cell proliferation (BrdU+ cells): without a significant effect on wildtype NPCs
[3]; Fmr1 KO mice
  astroglial differentiation (S100β+ among BrdU+ cells): rescued both neuronal and astroglial differentiation
  neuronal differentiation (NeuN+ among BrdU+ cells): rescued both neuronal and astroglial differentiation
[3]; wildtype mice
  astroglial differentiation (S100β+ among BrdU+ cells): without any significant effect on wildtype mice
  neuronal differentiation (NeuN+ among BrdU+ cells): without any significant effect on wildtype mice
Fmr1 KO mice; Fmr1 KO mice treated at 8 weeks old, tested at 24 weeks old
  cognitive deficits in the NOR test, long-term effect: long-term effects to fully rescue cognitive deficits
Fmr1 KO mice; Fmr1 KO mice treated at 20 weeks old (middle aged), 24-weeks-old at test
  cognitive deficits in the NOR test: fully rescued cognitive deficits
Fmr1 KO mice; Fmr1 KO mice, treated as young adults, tested 4 weeks later
  performance on the novel object recognition test (discrimination index): rescued performance
Fmr1 KO mice; wildtype mice, tested 4 weeks after treatment
  performance on the novel object recognition test (discrimination index): no significant effect on wildtype mice
[4]
  overall health and body weight: no significant effect on overall health and body weight
